pIC50: −log10 of the molar value. Several values for one entry are separate records, joined by “and”; a condition that tells them apart may be missing. Equal entries are not always repeated.
How the values were obtained:
[1] = biological target: T1, HDAC7 (Homo sapiens, UniProt Q8WUI4); assay: HDAC assay (Eurofins); format: biochemical
T1 construct: purchased Eurofins (contracted assay service)
T1 sequence (Q8WUI4 1-952): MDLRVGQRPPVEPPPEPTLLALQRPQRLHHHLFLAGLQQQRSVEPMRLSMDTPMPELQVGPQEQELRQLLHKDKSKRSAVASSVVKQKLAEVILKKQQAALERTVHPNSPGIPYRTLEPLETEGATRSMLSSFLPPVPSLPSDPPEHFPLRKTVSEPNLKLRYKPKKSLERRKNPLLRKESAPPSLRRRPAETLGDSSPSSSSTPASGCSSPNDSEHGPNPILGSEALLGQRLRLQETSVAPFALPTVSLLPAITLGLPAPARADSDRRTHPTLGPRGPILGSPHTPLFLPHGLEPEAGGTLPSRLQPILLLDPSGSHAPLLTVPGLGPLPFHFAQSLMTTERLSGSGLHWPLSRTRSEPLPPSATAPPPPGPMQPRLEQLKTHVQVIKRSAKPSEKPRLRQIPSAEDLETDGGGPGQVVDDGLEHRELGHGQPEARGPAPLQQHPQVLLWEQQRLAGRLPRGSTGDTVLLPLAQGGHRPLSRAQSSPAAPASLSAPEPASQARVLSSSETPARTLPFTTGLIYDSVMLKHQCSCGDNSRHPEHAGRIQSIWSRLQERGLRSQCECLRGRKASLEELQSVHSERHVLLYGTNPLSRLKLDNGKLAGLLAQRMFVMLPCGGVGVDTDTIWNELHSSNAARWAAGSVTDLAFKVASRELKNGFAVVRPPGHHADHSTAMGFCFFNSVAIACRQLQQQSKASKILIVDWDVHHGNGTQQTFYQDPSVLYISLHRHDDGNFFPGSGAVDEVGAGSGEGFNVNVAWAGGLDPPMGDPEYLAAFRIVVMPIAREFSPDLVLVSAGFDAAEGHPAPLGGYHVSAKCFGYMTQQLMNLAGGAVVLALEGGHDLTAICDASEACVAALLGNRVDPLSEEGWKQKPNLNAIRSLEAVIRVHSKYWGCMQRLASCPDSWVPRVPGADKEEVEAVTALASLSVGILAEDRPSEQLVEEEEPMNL

[2] = tested on: LINE-1 DNA methylation in HL-60; assay: LINE-1 pyrosequencing; format: cell-based, human
[3] = tested on: LINE-1 DNA methylation in MOLM-13; assay: LINE-1 pyrosequencing; format: cell-based, human
[4] = tested on: LINE-1 DNA methylation in MV4-11; assay: LINE-1 pyrosequencing; format: cell-based, human
[5] = tested on: HL-60 cells in BALB/cA Rag2-/-γc-/- mice; assay: Subcutaneous implant of in vitro pretreated cells, tumor volume; format: in vivo, mouse; design: key to Tumor volume: mm^3; V = D×d²/2 (D longest, d shortest diameter); settings: for Tumor volume: HL-60 cells pretreated in vitro for 96 hours with 270 nM of CM-444 or 300 nM of CM-1758, injected subcutaneously, individual mice
Description: (§1) The human AML HL-60 and ML-2 cell lines were first pretreated in vitro daily with 270 and 260 nM of CM-444 or 300 and 210 nM of CM-1758, respectively, for 4 days. Prior to injection in mice, the cell differentiation induction by CM-444 and CM-1758 compounds was verified by measuring CD11b by flow cytometry, as described earlier. Then, 5 × 10^6 cells of cells, pretreated with CM-444, […], or vehicle (80% saline solution, 10% DMSO and 10% Tween 20) and diluted in 100 µL of saline solution, were implanted subcutaneously into the flank of female BALB/cA Rag2^−/−γc^−/− mice between 6 and 8 weeks of age (n = 8). Tumor size was analyzed every 2–3 days using the following method: […], where D and d corresponded to the longest and shortest diameter, respectively. The maximal tumor size/burden permitted by the Animal Care and Ethics Committee of the University of Navarra is 2000 mm^3. In some cases, this limit was reached on the last day of measurement and the mice were immediately euthanized.

[6] = tested on: ML-2 cells in BALB/cA Rag2-/-γc-/- mice; assay: as above; format: in vivo, mouse; design: key to Tumor volume: mm^3; V = D×d²/2 (D longest, d shortest diameter); settings: for Tumor volume: ML-2 cells pretreated in vitro for 96 hours, injected subcutaneously, individual mice (Fig 3A)
Description: as §1

`COc1cc2nc(-c3cc(C)oc3C)cc(NCC3CCN(c4ncc(C(=O)NO)cn4)CC3)c2cc1OC` [CM-1758, 2-[4-[[[2-(2,5-dimethyl-3-furyl)-6,7-dimethoxy-4-quinolyl]amino]methyl] -1-piperidyl]pyrimidine-5-carbohydroxamic acid] was tested, and the pIC50 [1] was 6.92, the inhibition at 10 µM ([1]; 10 µM) was 89% and the “LINE-1 methylation (%) CG Position 1 Replicate 1” value ([2]; HL-60, 48 h) was 100%. For the same compound, the “LINE-1 methylation (%) CG Position 1 Replicate 2” value ([2]; HL-60, 48 h) was 100%, the “LINE-1 methylation (%) CG Position 2 Replicate 1” value ([2]; HL-60, 48 h) was 86% and the “LINE-1 methylation (%) CG Position 2 Replicate 2” value ([2]; HL-60, 48 h) was 82%. For the same compound, the “LINE-1 methylation (%) CG Position 3 Replicate 1” value ([2]; HL-60, 48 h) was 100%, the “LINE-1 methylation (%) CG Position 3 Replicate 2” value ([2]; HL-60, 48 h) was 100% and the “LINE-1 methylation (%) CG Position 4 Replicate 1” value ([2]; HL-60, 48 h) was 100%. The “LINE-1 methylation (%) CG Position 4 Replicate 2” value ([2]; HL-60, 48 h) was 100%, the “LINE-1 methylation (%) CG Position 5 Replicate 1” value ([2]; HL-60, 48 h) was 79% and the “LINE-1 methylation (%) CG Position 5 Replicate 2” value ([2]; HL-60, 48 h) was 83%. The “LINE-1 methylation (%) CG Position 1” value ([2]; HL-60, 10 days) was 76% and 78%, the “LINE-1 methylation (%) CG Position 2” value ([2]; HL-60, 10 days) was 61% and 65% and the “LINE-1 methylation (%) CG Position 3” value ([2]; HL-60, 10 days) was 77% and 85%. The “LINE-1 methylation (%) CG Position 4” value ([2]; HL-60, 10 days) was 87% and 93%, the “LINE-1 methylation (%) CG Position 5” value ([2]; HL-60, 10 days) was 57% and 55% and the “LINE-1 methylation (%) CG Position 1” value ([3]; MOLM-13, 48 hours) was 99% and 97%. For the same compound, the “LINE-1 methylation (%) CG Position 2” value ([3]; MOLM-13, 48 hours) was 85% and 81%, the “LINE-1 methylation (%) CG Position 3” value ([3]; MOLM-13, 48 hours) was 100% and 96% and the “LINE-1 methylation (%) CG Position 4” value ([3]; MOLM-13, 48 hours) was 100%. For the same compound, the “LINE-1 methylation (%) CG Position 5” value ([3]; MOLM-13, 48 hours) was 70% and 82%, the “LINE-1 methylation (%) CG Position 1” value ([3]; MOLM-13, 5 days) was 69% and 59% and the “LINE-1 methylation (%) CG Position 2” value ([3]; MOLM-13, 5 days) was 63% and 69%. The “LINE-1 methylation (%) CG Position 3” value ([3]; MOLM-13, 5 days) was 78% and 80%, the “LINE-1 methylation (%) CG Position 4” value ([3]; MOLM-13, 5 days) was 83% and 87% and the “LINE-1 methylation (%) CG Position 5” value ([3]; MOLM-13, 5 days) was 58% and 54%. For the same compound, the “LINE-1 methylation (%) CG Position 1” value ([4]; MV4-11, 48 hours) was 85%, the “LINE-1 methylation (%) CG Position 2” value ([4]; MV4-11, 48 hours) was 80% and 74% and the “LINE-1 methylation (%) CG Position 3” value ([4]; MV4-11, 48 hours) was 87%. The “LINE-1 methylation (%) CG Position 4” value ([4]; MV4-11, 48 hours) was 95% and 97%, the “LINE-1 methylation (%) CG Position 5” value ([4]; MV4-11, 48 hours) was 69% and 65% and the “LINE-1 methylation (%) CG Position 1” value ([4]; MV4-11, 5 days) was 79% and 75%. The “LINE-1 methylation (%) CG Position 2” value ([4]; MV4-11, 5 days) was 77% and 79%, the “LINE-1 methylation (%) CG Position 3” value ([4]; MV4-11, 5 days) was 82% and 84% and the “LINE-1 methylation (%) CG Position 4” value ([4]; MV4-11, 5 days) was 92% and 86%. For the same compound, the “LINE-1 methylation (%) CG Position 5” value ([4]; MV4-11, 5 days) was 66% and 60%, the tumor growth ([5]; HL-60 cells pretreated in vitro 4 days, s.c.) was “tumor growth was significantly slower” and the Tumor volume ([5]; day 0, in mm³) was 0. For the same compound, the Tumor volume ([5]; day 6) was 14.6888 and 24.2273 and 0 (4×) and 45.3546, the Tumor volume ([5]; day 8) was 103.082 and 62.3824 and 0 (2×) and 92.0448 and 53.4746 and 85.0123 and the Tumor volume ([5]; day 10, in mm³) was 433.416 and 271.101 and 281.205 and 32.0688 and 347.688 and 41.4834 and 382.357. The Tumor volume ([5]; day 13, in mm³) was 1283.62 and 996.2 and 1210.81 and 1389.27 and 1272.73 and 1452.46 and 1063.15, the tumor growth ([6]; ML-2 cells pretreated in vitro 4 days, s.c.) was “tumor growth was significantly slower” and the Tumor volume ([6]; day 0, in mm³) was 0. For the same compound, the Tumor volume ([6]; day 5, in mm³) was 0, the Tumor volume ([6]; day 7, in mm³) was 0 and the Tumor volume ([6]; day 9) was 1.83 and 2.997 and 3.143 and 0 (4×) and 2.907. For the same compound, the Tumor volume ([6]; day 12, in mm³) was 16.9153 and 75.9412 and 211.561 and 0 and 9.058 and 82.0914 and 8.878 and 27.0425, the Tumor volume ([6]; day 14, in mm³) was 153.626 and 316.908 and 512.533 and 39.4763 and 33.8029 and 280.96 and 104.197 and 181.612 and the Tumor volume ([6]; day 16, in mm³) was 325.692 and 736.294 and 1010.72 and 175.673 and 76.8746 and 574.138 and 425.416 and 598.506.

From article PMC11219871, “Epigenetic-based differentiation therapy for Acute Myeloid Leukemia” (Nature Communications, 2024)
